Assay results taken from PubChem BioAssay AID1259411 (Chemical Carcinogenesis Research Information System (CCRIS), 2018).
Active and inactive are the calls of the source. How the calls were made is not given here.

System: rodent carcinogenicity bioassays, tumor incidence
Test: CCRIS carcinogenicity studies
Method in brief: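 Archive of carcinogenicity, mutagenicity, tumor promotion and tumor inhibition results drawn from journals, NCI reports and other sources, expert-reviewed; covers 1985-2011 and is no longer updated.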

`C[C@@H]1O[C@@H](OC[C@H]2O[C@@H](Oc3cc4c(O)cc(O)cc4[o+]c3-c3ccc(O)c(O)c3)[C@H](O)[C@@H](O)[C@@H]2O)[C@H](O)[C@H](O)[C@H]1O` was tested, and the carcinogen call (Species: RAT, Strain/Sex: WISTAR/FEMALE, Route: ORAL, Dose: 0, 1.7, 4.1 G/KG/D IN DIET FOR 2 YR (STUDY DURATION: 2 YR), Dose: 0, 1.7, 4.1 G/KG/D IN DIET FOR 2 YR (STUDY DURATION: 2 YR)) was “inactive; negative” and the carcinogen call (Species: RAT, Strain/Sex: WISTAR/MALE, Route: ORAL, Dose: 0, 1.5, 3.7 G/KG/D DIET FOR 2 YR (STUDY DURATION: 2 YR), Dose: 0, 1.5, 3.7 G/KG/D DIET FOR 2 YR (STUDY DURATION: 2 YR)) was “inactive; negative”.
In the case of `CCOC(=O)CC(SP(=S)(OC)OC)C(=O)OCC` (stereo not drawn), the carcinogen call (Species: MOUSE, Strain/Sex: B6C3F1/FEMALE, Route: ORAL, Dose: 0, 8000, 16000 PPM IN DIET, Dose: 0, 8000, 16000 PPM IN DIET) is reported as “inactive; negative”, the carcinogen call (Species: MOUSE, Strain/Sex: B6C3F1/MALE, Route: ORAL, Dose: 0, 8000, 16000 PPM IN DIET, Dose: 0, 8000, 16000 PPM IN DIET) is reported as “inactive; negative” and the carcinogen call (Species: RAT, Strain/Sex: F344/FEMALE, Route: ORAL, Dose: 0, 2000, 4000 PPM IN DIET, Dose: 0, 2000, 4000 PPM IN DIET) is reported as “inactive; negative”. For the same compound, the carcinogen call (Species: RAT, Strain/Sex: F344/MALE, Route: ORAL, Dose: 0, 2000, 4000 PPM IN DIET, Dose: 0, 2000, 4000 PPM IN DIET) was “inactive; negative”, the carcinogen call (Species: RAT, Strain/Sex: OSBORNE-MENDEL/FEMALE, Route: ORAL, Dose: 0, 4700, 8150 PPM IN DIET, TWA FOR 80 WK, Dose: 0, 4700, 8150 PPM IN DIET, TWA FOR 80 WK) was “inactive; negative” and the carcinogen call (Species: RAT, Strain/Sex: OSBORNE-MENDEL/MALE, Route: ORAL, Dose: 0, 4700, 8150 PPM IN DIET, TWA FOR 80 WK, Dose: 0, 4700, 8150 PPM IN DIET, TWA FOR 80 WK) was “inactive; negative”.
With `C=C1C/C(=C/C)C(=O)O[C@@H]2CCN3CC=C(COC(=O)[C@@]1(O)CO)[C@H]23` the carcinogen call (Species: MOUSE, Strain/Sex: B6C3F1/FEMALE, Route: GAVAGE, Dose: 0, 3 MG/KG IN 0.1 M PHOSPHATE BUFFER 5 D/WK FOR 105 WK (STUDY DURATION: 105 WK), Tumor Site: Type of Lesion: LUNG (ALVEOLAR/BRONCHIOLAR): ADENOMA, ADENOMA OR CARCINOMA) was “active; positive”, the carcinogen call (Species: MOUSE, Strain/Sex: B6C3F1/MALE, Route: GAVAGE, Dose: 0, 0.1, 0.3, 1, 3 MG/KG IN 0.1 M PHOSPHATE BUFFER 5 D/WK FOR 105 WK (STUDY DURATION: 105 WK), Dose: 0, 0.1, 0.3, 1, 3 MG/KG IN 0.1 M PHOSPHATE BUFFER 5 D/WK FOR 105 WK (STUDY DURATION: 105 WK), Tumor Site: Type of Lesion: LIVER: HEMANGIOSARCOMA) was “active; positive” and the carcinogen call (Species: RAT, Strain/Sex: F344/FEMALE, Route: GAVAGE, Dose: 0, 0.01, 0.033, 0.1, 0.33 MG/KG IN 0.1 M PHOSPHATE BUFFER 5 D/WK FOR 105 WK (STUDY DURATION: 105 WK), Dose: 0, 0.01, 0.033, 0.1, 0.33 MG/KG IN 0.1 M PHOSPHATE BUFFER 5 D/WK FOR 105 WK (STUDY DURATION: 105 WK)) was “inactive; negative”. The carcinogen call (Species: RAT, Strain/Sex: F344/FEMALE, Route: GAVAGE, Dose: 0, 1 MG/KG IN 0.1 M PHOSPHATE BUFFER 5 D/WK FOR 97 WK (STUDY DURATION: 97 WK), Tumor Site: Type of Lesion: LIVER: HEMANGIOSARCOMA, HEPATOCELLULAR ADENOMA, ADENOMA OR CARCINOMA, HEMATOPOIETIC SYSTEM: MONONUCLEAR CELL LEUKEMIA) was “active; positive” and the carcinogen call (Species: RAT, Strain/Sex: F344/MALE, Route: GAVAGE, Dose: 0, 1 MG/KG IN 0.1 M PHOSPHATE BUFFER 5 D/WK FOR 72 WK (STUDY DURATION: 72 WK), Tumor Site: Type of Lesion: LIVER: HEMANGIOSARCOMA, HEPATOCELLULAR ADENOMA, HEMATOPOIETIC SYSTEM: MONONUCLEAR CELL LEUKEMIA) was “active; positive”.
For `O=C(O)C[C@@H]1NC(=O)[C@H](Cc2ccccc2)NC1=O`, the carcinogen call (Species: MOUSE, Strain/Sex: SWISS/FEMALE, Route: INTRAVESICULAR, Dose: 0, 4-4.4 MG IN CHOLESTEROL PELLET (STUDY DURATION: 26 WK)) was “inactive; negative” and the carcinogen call (Species: MOUSE, Strain/Sex: SWISS/FEMALE, Route: INTRAVESICULAR, Dose: 0, 4-4.4 MG IN CHOLESTEROL PELLET (STUDY DURATION: 56 WK)) was “inactive; negative”.
With `CCCCC(CC)COC(=O)CCCCC(=O)OCC(CC)CCCC` (stereo not drawn) the carcinogen call (Species: MOUSE, Strain/Sex: B6C3F1/FEMALE, Route: ORAL, Dose: 0, 12000, 25000 PPM IN DIET FOR 102-104 WK (STUDY DURATION: 102-104 WK), Dose: 0, 12000, 25000 PPM IN DIET FOR 102-104 WK (STUDY DURATION: 102-104 WK), Tumor Site: Type of Lesion: LIVER: CARCINOMA, CARCINOMA OR ADENOMA) was “active; positive”, the carcinogen call (Species: MOUSE, Strain/Sex: B6C3F1/FEMALE, Route: ORAL, Dose: 0, 12000, 25000 PPM IN DIET FOR 103 WK (STUDY DURATION: 105-106 WK), Dose: 0, 12000, 25000 PPM IN DIET FOR 103 WK (STUDY DURATION: 105-106 WK), Tumor Site: Type of Lesion: LIVER: HEPATOCELLULAR CARCINOMA) was “active; positive” and the carcinogen call (Species: MOUSE, Strain/Sex: B6C3F1/MALE, Route: ORAL, Dose: 0, 12000, 25000 PPM IN DIET FOR 102-104 WK (STUDY DURATION: 102-104 WK), Dose: 0, 12000, 25000 PPM IN DIET FOR 102-104 WK (STUDY DURATION: 102-104 WK), Tumor Site: Type of Lesion: LIVER: CARCINOMA OR ADENOMA) was “active; positive”. For the same compound, the carcinogen call (Species: MOUSE, Strain/Sex: B6C3F1/MALE, Route: ORAL, Dose: 0, 12000, 25000 PPM IN DIET FOR 103 WK (STUDY DURATION: 104-106 WK), Dose: 0, 12000, 25000 PPM IN DIET FOR 103 WK (STUDY DURATION: 104-106 WK), Tumor Site: Type of Lesion: LIVER: HEPATOCELLULAR CARCINOMA, HEPATOCELLULAR ADENOMA OR CARCINOMA) was “active; positive”, the carcinogen call (Species: RAT, Strain/Sex: F344/FEMALE, Route: ORAL, Dose: 0, 12000, 25000 PPM IN DIET FOR 102-104 WK (STUDY DURATION: 102-104 WK), Dose: 0, 12000, 25000 PPM IN DIET FOR 102-104 WK (STUDY DURATION: 102-104 WK)) was “inactive; negative” and the carcinogen call (Species: RAT, Strain/Sex: F344/FEMALE, Route: ORAL, Dose: 0, 12000, 25000 PPM IN DIET FOR 103 WK (STUDY DURATION: 104-107 WK), Dose: 0, 12000, 25000 PPM IN DIET FOR 103 WK (STUDY DURATION: 104-107 WK)) was “inactive; negative”. The carcinogen call (Species: RAT, Strain/Sex: F344/MALE, Route: ORAL, Dose: 0, 12000, 25000 PPM IN DIET FOR 102-104 WK (STUDY DURATION: 102-104 WK), Dose: 0, 12000, 25000 PPM IN DIET FOR 102-104 WK (STUDY DURATION: 102-104 WK)) was “inactive; negative” and the carcinogen call (Species: RAT, Strain/Sex: F344/MALE, Route: ORAL, Dose: 0, 12000, 25000 PPM IN DIET FOR 103 WK (STUDY DURATION: 104-107 WK), Dose: 0, 12000, 25000 PPM IN DIET FOR 103 WK (STUDY DURATION: 104-107 WK)) was “inactive; negative”.
`CCOC(=O)C(C)(C)Oc1ccc(Cl)cc1` was tested, and the carcinogen call (Species: MOUSE, Strain/Sex: CD-1/MALE,FEMALE (NEONATAL) (24-28/GROUP), Route: ORAL (GAVAGE), Dose: 0, 100, 350, 500 MG/KG BW ON D 9 AND 16 OF LIFE (STUDY DURATION: 1 YR)) was “inactive; negative”, the carcinogen call (Species: Mouse, Strain/Sex: Nontransgenic rasH2/Female (15/group), Route: Oral, Dose: 0, 250 mg/kg/day (Test material solvent: 0.5% (w/w) hydroxymethylcellulose in water), daily, by gavage for 27 wk, study, Dose: 0, 250 mg/kg/day (Test material solvent: 0.5% (w/w) hydroxymethylcellulose in water), daily, by gavage for 27 wk, study) was “inactive; negative (slight increase in incidence of various neoplasms (harderian gland, lu” and the carcinogen call (Species: Mouse, Strain/Sex: Nontransgenic rasH2/Male (15/group), Route: Oral, Dose: 0, 200 mg/kg/day (Test material solvent: 0.5% (w/w) hydroxymethylcellulose in water), daily, by gavage for 27 wk, study, Dose: 0, 200 mg/kg/day (Test material solvent: 0.5% (w/w) hydroxymethylcellulose in water), daily, by gavage for 27 wk, study, Tumor Site: Type of Lesion: Liver) was “inactive; negative (hepatocellular neoplasms observed in matched study of male transgenic”. For the same compound, the carcinogen call (Species: RAT, Strain/Sex: F344/MALE, Route: ORAL, Dose: 0.5% IN DIET FOR UP TO 28 MO, Tumor Site: Type of Lesion: LIVER: HEPATOCELLULAR CARCINOMA) was “active; positive” and the carcinogen call (Species: RAT, Strain/Sex: SPRAGUE-DAWLEY/MALE,FEMALE, Route: ORAL, Dose: 1500, 4500, 9000 PPM IN DIET, Dose: 1500, 4500, 9000 PPM IN DIET, Tumor Site: Type of Lesion: LIVER) was “active; positive”.
